Assay results as given in US20100311770A1, “COMPOUND COMBINATIONS FOR INHIBITING CELL DIVISION AND METHODS FOR THEIR IDENTIFICATION AND USE” (President and Fellows of Harvard College, priority 2005, published 2010).
Converted amounts (≈) assume the structure as drawn. “Also recorded” adds a separate entry of the source.

How the values were obtained:
[1] = tested on: E. coli DRC39 (ΔacrAB::kan); format: cell-based; details: for MIC: E. coli DRC39 (ΔacrAB::kan), MIC99
[2] = tested on: E. coli strain DRC39; test: combination anti-bacterial treatment at sub-MIC concentrations, cell growth by turbidity or OD600; format: cell-based; details: for amount of growth relative to absence of compound / growth inhibition: single compound
Description: Cell growth was assessed by visual inspection of cells incubated in culture tubes in this experiment and in the second, third, and fourth experiments described in this Example. In the fifth experiment growth was measured by reading optical density (OD600) using a multiwell plate reader. Cells were inoculated at a low concentration (1-2×10^5 cells/ml), such that the medium appeared clear.

[3] = target: E. coli FtsZ (FtsZEc) GTPase (Escherichia coli, UniProt P0A9A6); details: read-out: IC50 FtsZEc GTPase; 5 min preincubation at 30° C., 1 mM GTP; average of three determinations
Description: FtsZ was preincubated with varying concentrations of compounds or with 3% DMSO in buffer E for 5 min at 30° C., before adding 1 mM GTP to the reactions. Reaction kinetics were followed by measuring inorganic phosphate released upon GTP hydrolysis. The IC50 values were extrapolated from log dose-response curves and are averages from three independent determinations.

[4] = target: M. tuberculosis FtzZ (FtsZMt) GTPase (Mycobacterium tuberculosis, UniProt P9WN95); test: malachite green-phosphomolybdate assay of FtsZ GTPase activity; format: biochemical; details: 5 min preincubation at 30° C., 1 mM GTP; average of three determinations
[5] = tested on: E. coli DRC40 (DRC39 ftsZ84); test: MIC / growth and phenotype, broth culture; format: cell-based
[6] = tested on: Clostridium perfringens; format: cell-based
[7] = tested on: E. coli DRC40/pBR-ftsZ+; format: cell-based
[8] = tested on: FtsZ ring assembly in E. coli DRC39 cells; format: cell-based
[9] = tested on: E. coli MC1000 (wild-type); test: MIC, standard broth dilution; details: MIC99
[10] = tested on: E. coli DRC42 (DRC39 recA::cat); test: MIC, standard broth dilution
[11] = tested on: Vibrio cholerae; test: MIC, standard broth dilution
[12] = tested on: Bacillus subtilis; test: MIC / killing, broth culture
[13] = tested on: Staphylococcus aureus; test: MIC, standard broth dilution
[14] = tested on: gram-negative and gram-positive bacteria; test: MIC against a variety of bacteria (FIG. 19); format: cell-based
Description: FIG. 19 is a table illustrating the minimum inhibitory concentrations of FtsZ GTPase inhibitory compounds identified in vitro. The compounds were tested against a variety of gram-negative and gram-positive bacteria.
The minimum inhibitory concentrations for some of the identified compounds against various bacterial species and strains were evaluated and results are shown herein (see, e.g., FIG. 19 for MIC values of compounds identified using in vitro assays, and see Table 3 for MIC values for compound 26E-10).

[15] = C. perfringens, 80 μM, anaerobic conditions

E. coli FtsZ (FtsZEc) GTPase, sequence (P0A9A6 whole entry): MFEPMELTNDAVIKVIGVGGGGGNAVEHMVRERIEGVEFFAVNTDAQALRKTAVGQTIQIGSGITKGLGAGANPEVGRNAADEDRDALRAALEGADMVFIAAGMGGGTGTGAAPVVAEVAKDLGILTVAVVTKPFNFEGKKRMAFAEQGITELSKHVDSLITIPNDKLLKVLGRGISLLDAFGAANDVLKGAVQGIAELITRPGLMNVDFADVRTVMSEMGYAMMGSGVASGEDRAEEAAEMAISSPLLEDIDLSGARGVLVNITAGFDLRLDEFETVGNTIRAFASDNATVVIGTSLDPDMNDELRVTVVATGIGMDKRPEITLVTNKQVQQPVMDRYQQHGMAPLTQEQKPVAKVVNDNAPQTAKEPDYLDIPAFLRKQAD
M. tuberculosis FtzZ (FtsZMt) GTPase, sequence (P9WN95 whole entry): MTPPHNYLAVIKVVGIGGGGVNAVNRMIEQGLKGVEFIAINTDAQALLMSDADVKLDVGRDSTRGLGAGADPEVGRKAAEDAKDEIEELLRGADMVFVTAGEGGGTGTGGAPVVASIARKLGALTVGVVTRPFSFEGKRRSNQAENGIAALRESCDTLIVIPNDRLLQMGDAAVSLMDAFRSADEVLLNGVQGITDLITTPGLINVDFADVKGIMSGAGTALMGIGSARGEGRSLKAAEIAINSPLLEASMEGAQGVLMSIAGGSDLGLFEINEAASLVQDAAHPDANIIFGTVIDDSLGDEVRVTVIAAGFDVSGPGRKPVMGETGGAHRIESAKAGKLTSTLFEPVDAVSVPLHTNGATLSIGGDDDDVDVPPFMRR

CCN1C(=Cc2ccc3c4ccccc4ccc3[n+]2CC)C=Cc2ccccc21.Cc1ccc(S(=O)(=O)[O-])cc1 [7N-12]
MIC [1]: 1.25 µM | amount of growth relative to absence of compound ([2]; 0.3 μM): 98% | growth inhibition ([2]; 0.3 μM): 2%

CCN(CC)CCNc1nc(C=Cc2ccc(Cl)cc2)nc2cc3ccccc3cc12 [16L-09]
IC50 [3]: 15 µM | IC50 [4]: 50 µM | MIC [1]: 10 µM (≈ 4.31 µg/mL) | reduction in MIC when administered in combination ([2]; in combination with 26E-10 at sub-MIC concentrations): 4 fold

CC[n+]1ccc(/C=C/N(C)c2ccccc2)c2ccccc21.[I-] [26E-10]
cell morphology and density ([1]; DRC39, 5 μM compound, 30° C.): mixture of filaments of varying lengths and short cells present at a low density | phenotype at MIC ([1]; E. coli DRC39): filaments | MIC [1]: 10 µM | growth ([5]; DRC40/pBR322, 5 μM compound, 30° C.): absolutely no growth | phenotype at MIC ([5]; E. coli DRC40): filaments | MIC ([5]; E. coli DRC40 (ftsZ84), 30° C., MIC99): 2.5 µM | effect on cell growth [6, 15]: without any overt effect on cell growth | phenotype [6, 15]: filamentation phenotype; also recorded: filaments | MIC ([6]; Clostridium perfringens): > 80 µM | cell density and filamentation ([7]; DRC40/pBR-ftsZ+, 5 μM compound, versus DRC40/pBR322): higher cell density and less pronounced filamentation | MIC ([7]; DRC40 with wild-type ftsZ in trans (pBR-ftsZ+)): 10 µM | amount of growth relative to absence of compound ([2]; 5 μM): 41% | growth inhibition ([2]; 5 μM): 59% | DNA replication / chromosome segregation (DAPI staining of nucleoids) ([8]; 10 μM): does not affect DNA replication or chromosome segregation | Z-rings in elongated cells ([8]; 10 μM (MIC), within 60 min): markedly reduced in number and diminished in intensity | Z-rings ([8]; 10 μM, after 90 min treatment): most of the cells were devoid of distinct Z-rings | cell length (filamentation) ([8]; 10 μM, within 60 min of treatment): ~4 × | MIC [9]: >40 µM | MIC [10]: 10 µM | MIC [11]: 40 µM | killing of B. subtilis [12]: efficiently killed | MIC ([12]; Bacillus subtilis): 40 µM | MIC [13]: 20 µM

Oc1ccc(Cl)cc1Cc1cc(Cl)cc(Cc2cc(Cl)ccc2O)c1O [27D-12]
IC50 [3]: 5 µM | IC50 [4]: 55 µM | MIC [1]: 20 µM (≈ 8.19 µg/mL) | activity against gram negative bacteria [14]: kills gram negative species | activity against gram positive bacteria [14]: effective against gram positive bacteria at very low concentrations

Nc1c(C=Cc2cc3cc(C4=NCCN4)ccc3o2)[nH]c2cc(C3=NCCN3)ccc12 [58P-18]
IC50 [3]: 4 µM | IC50 [4]: 30 µM | MIC [1]: 80 µM (≈ 32.8 µg/mL) | Z-ring assembly ([8]; 40 μM): none of the treated cells appear to contain a medial FtsZ ring | time until cells start elongating ([8]; 40 μM): ≤ 60 min
